In patent US9416111B2, “Substituted diazine and triazine spleen tyrosine kinease (Syk) inhibitors” (Merck Sharp & Dohme Corp., priority 2012, dated 2016):
Values joined by “and” are separate entries in the source; they are usually repeats but may differ in a detail not shown here. Equal entries are not always repeated. Where two headings read alike, the source gives them in different places.

Columns and labels:
[1] = target: T1, recombinant human GST-SYK (Homo sapiens, UniProt P43405); assay: Homogeneous Time-Resolved Fluorescence (HTRF) assay for the recombinant human Syk enzyme; format: biochemical; conditions: GST-hSYK 5 pM, ATP 25 μM
T1 construct: purchased Carna Biosciences 08-176
Summary of the method: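 HTRF read-out, via Europium anti-phosphotyrosine antibody and SA-APC added with EDTA, measured phosphorylation of a 250 nM biotinylated substrate after 45 min at room temperature with 25 μM ATP and 5 mM magnesium. Enzyme was 5 pM GST-hSYK, preincubated 10 min with compound in Tris pH 7.5 buffer containing DTT.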

[2] = tested on: PGD2; conditions: dosed intranasally, phase I/II study, allergic rhinitis; cited from earlier work
[3] = phase II clinical trial, allergic rhinitis; cited from earlier work
[4] = IC50 rated in classes, read-out: rhSYK Activity

CCOC(=O)CCc1cc(-c2cc(C)cc(Nc3nccc(C4CC4)n3)c2)ncn1 [Example 3.53, ethyl 3-(6-{3-[(4-cyclopropylpyrimidin-2-yl)amino]-5-methylphenyl}pyrimidin-4-yl)propanoate]
IC50 [1, 4]: 100 to 1000 nM

Cc1cc(Nc2nccc(C3CC3)n2)cc(-c2cc(CCC(=O)O)ncn2)c1 [Example 3.54, 3-(6-{3-[(4-cyclopropylpyrimidin-2-yl)amino]-5-methylphenyl}pyrimidin-4-yl)propanoic acid]
IC50 [1, 4]: 100 to 1000 nM

Cc1cc(Nc2nccc(C)n2)cc(-c2cnc(CCC(=O)O)nc2)c1 [Example 3.55, 3-(5-{3-methyl-5-[(4-methylpyrimidin-2-yl)amino]phenyl}pyrimidin-2-yl)propanoic acid]
IC50 [1, 4]: 100 to 1000 nM and < 100 nM

Cc1cc(Nc2nccc(C3CC3)n2)cc(-c2cnc(CCC(=O)O)nc2)c1 [Example 3.57, 3-(5-{3-[(4-cyclopropylpyrimidin-2-yl)amino]-5-methylphenyl}pyrimidin-2-yl)propanoic acid]
IC50 [1, 4]: < 100 nM

Cc1cc(Nc2nccc(C(F)(F)F)n2)cc(-c2cnc(OC3CCC(C(=O)O)CC3)nc2)c1 (stereo not shown) [Example 3.58, 4-{[5-(3-methyl-5-{[4-(trifluoromethyl)pyrimidin-2-yl]amino}phenyl)pyrimidin-2-yl]oxy}cyclohexanecarboxylic acid]
IC50 [1, 4]: < 100 nM

Cc1cc(Nc2nccc(C(F)(F)F)n2)cc(-c2cnc(OC3CCC(C(=O)O)CC3)nc2)c1 (stereo not shown) [Example 3.59, 4-{[5-(3-methyl-5-{[4-(trifluoromethyl)pyrimidin-2-yl]amino}phenyl)pyrimidin-2-yl]oxy}cyclohexanecarboxylic acid]
IC50 [1, 4]: < 100 nM

Cc1cc(Nc2nccc(C(F)(F)F)n2)cc(-c2cnc(OC3CCC(C(=O)O)CC3)nc2)c1 (stereo not shown) [Example 3.60, 4-{[5-(3-methyl-5-{[4-(trifluoromethyl)pyrimidin-2-yl]amino}phenyl)pyrimidin-2-yl]oxy}cyclohexanecarboxylic acid]
IC50 [1, 4]: < 100 nM

Cc1cc(Nc2nccc(C)n2)cc(-c2cnc(CCC(=O)O)nc2)c1 [Example 3.61, 3-(5-{3-methyl-5-[(4-methylpyrimidin-2-yl)amino]phenyl}pyrimidin-2-yl)propanoic acid]
IC50 [1, 4]: 100 to 1000 nM and < 100 nM

Cc1cc(Nc2nccc(C(F)(F)F)n2)cc(-c2cnc(CCC(=O)O)nc2)c1 [Example 3.62, 3-[5-(3-methyl-5-{[4-(trifluoromethyl)pyrimidin-2-yl]amino}phenyl)pyrimidin-2-yl]propanoic acid]
IC50 [1, 4]: < 100 nM

Cc1cc(Nc2nccc(C(F)(F)F)n2)cc(-c2cnc(NC3(C(N)=O)CC3)nc2)c1 [Example 4.1, 1-{[5-(3-methyl-5-{[4-(trifluoromethyl)pyrimidin-2-yl]amino}phenyl)pyrimidin-2-yl]amino}cyclopropanecarboxamide]
IC50 [1, 4]: < 100 nM | IC50 ([1]; values in text, read-out: IC50): 21.6 nM

Cc1cc(Nc2nccc(C(F)F)n2)cc(-c2cnc(C[C@H]3CC[C@H](C(=O)O)CC3)nc2)c1 [Example 5.1, trans-4-{[5-(3-{[4-(difluoromethyl)pyrimidin-2-yl]amino}-5-methylphenyl)pyrimidin-2-yl]methyl}cyclohexanecarboxylic acid]
IC50 [1, 4]: < 100 nM | IC50 ([1]; values in text, read-out: IC50): 2.9 nM

Oc1cccc(Nc2ncc(F)c(Nc3cccc(O)c3)n2)c1 [Example R112]
clinical safety [2]: safe across a range of indicators | decrease in PGD2 [2]: statistically significant decrease in PGD2 | efficacy versus placebo [3]: lack of efficacy versus placebo
